One data set has as its system CSF Aβ40. Kind of data set: Aβ Reduction In Vivo (rat CSF Aβ40). The settings on record: male CD IGS rats, 10 mg/kg oral gavage, CSF at 3 hours, change vs vehicle. Here is the method: Assay 5: Aβ Reduction In Vivo
The in vivo efficacy and/or potency of BACE inhibitors (test compounds) can be evaluated using a variety of animal models, including mouse, rat, dog, and monkey, and these animals can be wild type, transgenic, or gene knockout animals.
Generally, animals are administered (by oral gavage, intravenous injection, or by other suitable route) a test compound in doses ranging from, for example, 0.1 mg/kg (mg of compound per kg of animal body weight) to 100 mg/kg formulated in vehicles, such as cyclodextrin, phosphate buffer, hydroxypropyl methylcellulose or other suitable vehicles. One to twenty-four hours following the administration of compound, animals are sacrificed, and tissues (for example, brain, cerebrospinal fluid (CSF), and/or plasma) are collected for analysis of Aβ levels and/or test compound concentrations (Dovey et al., 2001, Journal of Neurochemistry, 76, 173-181). Tissue samples are processed appropriately and then analyzed for the presence of Aβ by specific sandwich ELISA assays based on electrochemiluminescence (ECL) technology.
For example, in the following assay for which data are reported below, male CD IGS rats (body weight approximately 120 g, Charles River Laboratories, Kingston, N.Y.) were used to assess lowering of CSF levels of Aβ1-40 (Aβ40) in the presence of compounds of the invention. At time 0, animals were administered by oral gavage a test compound at a dose of 10 mg/kg in 20% hydroxypropyl-β-cyclodextrin (dosing volume 5 mL/kg). A separate group of animals received 20% hydroxypropyl-β-cyclodextrin alone to serve as the vehicle control group. Three hours after administration, the rats were euthanized with excess CO2. Immediately following euthanasia, CSF was collected from the cisterna magna and quickly frozen on dry ice. Samples were stored at −80° C. until quantification of Aβ40 levels.
The measurement of endogenous rat Aβ40 in CSF relied on the 585 antibody (Ab585, BioSource, NONO585), which specifically recognizes the N-terminal sequence of rodent Aβ40, and on the monoclonal antibody, G2-10, which specifically recognizes the free C-terminus of Aβ40. Ab585 was labeled with biotin (b-Ab585) by first dialyzing the antibody sample extensively versus PBS (pH 7.8) to remove impurities, followed by dilution to between 1 and 2 mg/mL protein concentration. EZ-Link Sulfo-NHS-LC-Biotin (Pierce) was dissolved in PBS (pH 7.8) at a concentration of 1 mg/mL immediately prior to use. Ab585 was labeled with EZ-Link Sulfo-NHS-LC-biotin using a 10:1 biotin:antibody ratio by incubation at room temperature for 1 hour. The labeling reaction was quenched by addition of 1.0 M glycine to a final concentration of 0.1 M followed by 10 minute incubation at room temperature. Glycine was removed by extensive dialysis versus PBS.
For rat CSF Aβ40 determinations, a calibration curve of various concentrations of synthetic rodent Aβ40 was assayed in parallel with rat CSF samples in duplicate using an avidin-coated 96-well MSD plate (Mesoscale Diagnostics). Either 50 μL of rodent Aβ40 standards diluted in PBS (pH 7.4) supplemented with 1% BSA and 1% Tween-20 (standard diluent buffer) or 40 μL of standard diluent buffer plus 10 μL rat CSF were added to each 96 well avidin-coated plate. To each well was added 50 μL of 0.1 M HEPES (pH 7.5), 2% BSA, 2% Tween-20, 0.3 M NaCl (2×Aβ40 buffer) supplemented with the b-Ab585 capture and ruthenylated-G2-10 detection antibodies diluted to 1 μg/mL and 0.5 μg/mL, respectively. Plates were shaken for 1 min on a microplate shaker, covered to protect from light and incubated overnight (˜16 h) at 4° C. For detection, plates were first washed twice with 100 μL of 1×CSF Aβ40 buffer followed by addition of 160 μL of 1×MSD read buffer-T (Mesoscale Diagnostics) diluted in 1×CSF Aβ40 buffer. Plates were read on a MSD Sector Imager 2400 model (Mesoscale Diagnosotics). […]

The target of the next data set is rat Mdr1a (P-gp) (Rattus norvegicus, UniProt Q6PSM0). Kind of data set: P-Glycoprotein (P-gp) Efflux Susceptibility Assay. The settings on record: LLC-PK1, pH 7.4; rat LLC-Mdr1a cells, B-A/A-B Papp ratio at 3 h; method 0.1 μM; read-out: P-gp efflux assay (rMDR1a BAAB). In kind it is in vitro ADME. As for the experimental part:
Assay 6: P-Glycoprotein (P-Gp) Efflux Susceptibility Assay
As P-gp is expressed at the blood-brain-barrier, among other tissues, lower P-gp efflux ratio values are associated with a better ability to cross the blood-brain-barrier to reach the site of BACE-1 expression in the central nervous system. P-gp efflux ratios are measured in cellular assays using cell lines that express P-gp from a number of species including rat, monkey, and human. The following assay was used to measure the rat P-gp efflux ratios, which are believed to be the most sensitive measure of P-gp susceptibility, for the compounds of the invention (test compounds) reported in the tables below.
The bidirectional transport of test compounds was conducted across pig kidney epithelial (LLC-PK1) cell monolayers. Native LLC-PK1 cells were obtained from The Netherlands Cancer Institute (Amsterdam, The Netherlands), and used under a license agreement. LLC-PK1 cells expressing a cDNA encoding rat Mdr1a (rat LLC-Mdr1a) were made in-house by stable transfection of LLC-PK1 cells with a rat MDR1 cDNA. LLC-PK1 and rat LLC-Mdr1a cell lines were cultured in 96-well transwell culture plates. […] Substrate solution (150 μL) was added to either the apical (A) or the basolateral (B) compartment of the culture plate, and buffer (150 μL; HBSS, 10 mM HEPES, pH 7.4) was added to the compartment opposite to that containing the compound. At t=3 h, 50 μL samples were removed from both sides of monolayers dosed with test compound and placed in 96 well plates, internal standard (50 μL 1 μM labetolol) was added to the samples. Samples were analyzed by LC/MS/MS using an Applied Biosystems SCIEX API 5000 triple quadruple mass spectrometry (Concord, ON, Canada) with a TurbolonSpray ion source in the positive ion mode. A Thermo Scientific Transcend LX-2 system (Franklin, Mass.) was coupled to the API 5000 with a flow rate of 800 μL/min to direct sample into the mass spectrometer. A Waters ACQUITY UPLC T3 (2×30 mm, 1.7 μm; Milford, Mass.) column was used for sample analysis. Mobile phase A consisted of 0.1% formic acid in water. Mobile phase B was acetonitrile with 0.1% formic acid. A gradient elution program was utilized where the solvent composition was held at 5% B for 0.25 min, changed from 5% B to 95% B at 0.25 min, and followed by holding at 95% B for 0.5 min, then, went back to 5% B at 0.75 min. The column was then re-equilibrated at the original solvent composition for 0.5 min. Mass spectrometric detection was accomplished by multiple reaction monitoring (MRM) of transitions unique to each compound. Sample concentration was obtained by extrapolation from the standard curve. Verapamil (1 μM) was used as the positive control to assess the functional activity of Pgp. The experiment was performed in triplicate.
The Papp was calculated by the following formula for samples taken at t=3 h:
[formula] where “Volume of Receptor Chamber” is 0.15 mL, “Area of membrane” is 0.11 cm^2, the “Initial Concentration” is the sum of the concentration measured in the donor compartment plus the concentration measured in the receiver compartment at t=3 h, “Δ in Concentration” is the concentration in the receiver compartment at 3 h, and “Δ in Time” is the incubation time (3×60×60=10800 s). Papp was expressed as 10^−6 cm/s.
The Papp reported in the table below is the average of the Papp for transport from A to B and Papp for transport from B to A at t=3 hr.
The B-A/A-B ratio (BAAB) was calculated by dividing the Papp from B to A by the Papp from A to B at t=3 h: […]

Another data set addresses BACE-1 (Homo sapiens (Human), UniProt P56817). Kind of data set: BACE-1 Cellular Assay (Aβ in HEK293-APPswe/lon cells). In kind it is cell-based. The settings on record: 4 hours. A digest of the protocol: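 HEK293 cells stably expressing human APP with Swedish and London FAD mutations, cultured at 37° C., 5% CO2. Aβ40 or Aβ42 in conditioned media measured by electrochemiluminescent ELISA (WO2 capture; G2-10 or G2-11 detection). IC50 from variable-slope sigmoidal fit of signal versus compound concentration.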

The target in data set [1] is purified human autoBACE-2 (Homo sapiens (Human), UniProt Q9Y5Z0). Kind of data set: BACE-2 Assay (BACE-HTRF assay). In kind it is biochemical. The conditions noted are these: Assay 2; Ki calculated from IC50 by Cheng-Prusoff; read-out: BACE2 Ki. The procedure, abridged:
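Purified human autoBACE-2 (1 nM final) pre-incubated 30 min at 30° C with compounds in 20 mM sodium acetate pH 5.0, 10% glycerol, 0.1% Brij-35, 5% DMSO final; endpoint HTRF cleavage of QSY7/Eu FRET peptide, read at 620 nm (320 nm excitation). IC50 by sigmoidal regression of normalized data; Ki by Cheng-Prusoff.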

In data set [2] the target is purified human Cathepsin-D (Homo sapiens (Human), UniProt P07339). The experiment in a line: Cathepsin-D Assay (time-resolved FRET).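 Also: Europium-labelled peptide substrate with QSY7 quencher, cleavage read as 620 nm fluorescence after 30 min preincubation then 30 min reaction at 30 °C, pH 5.0, inhibition lowers signal.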 In kind it is biochemical. The conditions noted are these: Assay 4; Ki calculated from IC50 by Cheng-Prusoff.
Sequence of purified human Cathepsin-D (P07339 65-412): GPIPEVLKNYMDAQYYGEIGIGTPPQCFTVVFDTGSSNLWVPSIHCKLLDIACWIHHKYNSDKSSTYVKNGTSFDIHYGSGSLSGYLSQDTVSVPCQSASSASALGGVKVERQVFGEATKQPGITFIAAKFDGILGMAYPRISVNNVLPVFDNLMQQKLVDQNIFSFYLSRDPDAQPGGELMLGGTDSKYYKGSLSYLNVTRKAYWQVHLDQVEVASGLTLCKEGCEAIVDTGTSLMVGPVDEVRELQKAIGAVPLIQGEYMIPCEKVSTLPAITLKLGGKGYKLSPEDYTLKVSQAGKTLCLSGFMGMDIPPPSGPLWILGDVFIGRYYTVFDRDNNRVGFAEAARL
For data set [3], the target named is soluble human BACE-1 catalytic domain (Homo sapiens (Human), UniProt P56817). Kind of data set: BACE-1 Ki Assay (BACE-1 HTRF FRET Assay). The data set is classed as biochemical. The conditions noted are these: Assay 1; Ki calculated from IC50 by Cheng-Prusoff. A digest of the protocol:
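Recombinant human BACE-1 catalytic domain (3 nM in 10 μl) preincubated with inhibitor 30 min at 30° C, pH 5.0 acetate buffer with 7.5% DMSO, then 200 nM final QSY7-APPswe-Eu substrate for 1.5 h; 620 nm time-resolved fluorescence read. IC50 from nonlinear regression converted to Ki by Cheng-Prusoff using Km 8 μM.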

A further data set deals with HepG2 cells. Kind of data set: In Vitro Phospholipidosis Assay. In kind it is cell-based. The conditions noted are these: 20 μM, 24 hours, normalized to DMSO. The source says:
[formula] Assay 7: In Vitro Phospholipidosis Assay
Drug-induced phospholipidosis (PL) is characterized by intracellular accumulation of phospholipids with lamellular bodies, and may result from impaired phospholipid metabolism in the lysosome (Anderson et al., 2006, FEBS Letter, 580, 5533-5540), and many compounds known to cause drug-induced PL are also associated with adverse drug reactions. Using a method described in the literature (Bhandari et al., 2008, Assay and Drug Dev. Tech., 6(3), 407-419), an in vitro cellular assay can provide data that can determine the PL potential of test compounds. In this assay, compounds that lower values for mean inclusion count of a fluorescent phospholipid (described below) versus control are associated with reduced potential for PL.
HepG2 cells were dispensed into 96-well collagen I coated plates at an initial density of 2.0×10^5 cells in 200 μL complete culturing medium (MEM Media w/Earle's Balanced Salt Solution supplemented with 10 IU penicillin, 10 μg/mL streptomycin, and 10% heat inactivated fetal bovine serum). Cells were incubated overnight at 37° C. with 5% CO2, 89% humidity prior to treatment.
A solution of fluorescently labeled phospholipid N-(7-nitrobenz-2-oxa-1,3-diazol-4-yl)-1,2-dihexadecanoyl-sn-glycero-3-phosphoethanolamine (NBD-PE) was prepared at a concentration of 10 mM in absolute ethanol. Dissolution of the NBD-PE was facilitated by sonication in a room temperature water bath for 30 minutes. NBD-PE medium was prepared by diluting NBD-PE stock to a final concentration of 50 μM in complete culturing medium, filtering (pore size, 0.22 μm) prior to use.
Compound treatment stocks were prepared in dimethyl sulfoxide at 500× final concentrations. Working treatment solutions were prepared by diluting compound stocks into NBD-PE medium with DMSO serving as the vehicle control. Treatment concentration was 20 μM. Amiodarone ((2-{4-[(2-butyl-1-benzofuran-3-yl)carbonyl]-2,6-diiodophenoxy}ethyl)diethylamine) served as the assay positive control at the same concentration. All treatments were tested in triplicate for 24 hours.
Following treatment, cultures were rinsed once with Hank's Balanced Salt Solution (HBSS) containing no phenol red. Cultures were then incubated for 30 minutes at 37° C. with […] Hoechst 33342 nuclear stain and […] cell tracker orange cytoplasm stain. After incubation, cells were rinsed once with HBSS and then fixed in 2% formalin solution.
Cultures were imaged using the IN Cell Analyzer 2000 imaging system. One set of images were acquired with the 4× objective using the appropriate Hoechst filter settings to acquire a full-well cell count. Another set of images were acquired to evaluate treatment-related phospholipidosis with the 20× objective.
Images were analyzed using custom algorithms created in the IN Cell Workstation software using NBD-PE inclusion count in the cell cytoplasm as and endpoint associated with phospholipidosis. Data were expressed as fold over control, normalized to the DMSO vehicle control response.

This is an account of results in patent publication US9732088B2, “C2-carbocyclic iminothiazine dioxides as BACE inhibitors, compositions, and their use” (Merck Sharp & Dohme Corp., priority 2014, dated 2017).

Molecules are shown by their SMILES. pKi: −log10 of the molar value.

Sequence of BACE-1 (P56817 46-501): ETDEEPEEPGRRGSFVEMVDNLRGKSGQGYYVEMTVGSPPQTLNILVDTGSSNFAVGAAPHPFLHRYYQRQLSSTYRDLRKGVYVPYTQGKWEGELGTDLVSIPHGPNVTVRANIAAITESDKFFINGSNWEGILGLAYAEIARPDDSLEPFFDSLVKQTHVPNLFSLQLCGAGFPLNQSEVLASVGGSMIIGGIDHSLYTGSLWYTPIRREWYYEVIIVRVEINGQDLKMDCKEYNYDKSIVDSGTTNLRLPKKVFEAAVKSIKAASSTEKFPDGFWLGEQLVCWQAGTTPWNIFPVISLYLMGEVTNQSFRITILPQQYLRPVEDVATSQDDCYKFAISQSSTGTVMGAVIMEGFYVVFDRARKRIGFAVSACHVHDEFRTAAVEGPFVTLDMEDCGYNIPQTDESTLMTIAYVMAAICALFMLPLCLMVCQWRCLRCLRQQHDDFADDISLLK
Sequence of soluble human BACE-1 catalytic domain (P56817 75-416): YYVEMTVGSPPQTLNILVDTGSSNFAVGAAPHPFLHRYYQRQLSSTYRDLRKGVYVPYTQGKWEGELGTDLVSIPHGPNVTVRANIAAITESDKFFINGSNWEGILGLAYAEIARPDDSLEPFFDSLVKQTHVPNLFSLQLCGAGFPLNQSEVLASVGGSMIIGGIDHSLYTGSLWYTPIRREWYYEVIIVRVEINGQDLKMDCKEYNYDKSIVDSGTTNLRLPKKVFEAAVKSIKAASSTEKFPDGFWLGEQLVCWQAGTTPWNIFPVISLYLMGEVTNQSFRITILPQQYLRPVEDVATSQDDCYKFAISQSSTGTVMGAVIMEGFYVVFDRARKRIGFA
Sequence of purified human autoBACE-2 (Q9Y5Z0 63-466): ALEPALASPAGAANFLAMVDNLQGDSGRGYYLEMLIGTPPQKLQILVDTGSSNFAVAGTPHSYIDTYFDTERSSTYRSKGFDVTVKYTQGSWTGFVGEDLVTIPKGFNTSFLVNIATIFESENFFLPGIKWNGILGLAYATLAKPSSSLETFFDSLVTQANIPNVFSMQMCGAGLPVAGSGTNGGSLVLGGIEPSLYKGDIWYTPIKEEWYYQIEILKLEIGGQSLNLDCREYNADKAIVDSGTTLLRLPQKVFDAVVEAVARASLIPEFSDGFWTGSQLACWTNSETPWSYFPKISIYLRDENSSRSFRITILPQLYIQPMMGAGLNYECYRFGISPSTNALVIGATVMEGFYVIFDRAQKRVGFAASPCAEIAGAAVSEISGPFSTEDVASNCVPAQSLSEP
Sequence of rat Mdr1a (P-gp) (Q6PSM0 1-1272): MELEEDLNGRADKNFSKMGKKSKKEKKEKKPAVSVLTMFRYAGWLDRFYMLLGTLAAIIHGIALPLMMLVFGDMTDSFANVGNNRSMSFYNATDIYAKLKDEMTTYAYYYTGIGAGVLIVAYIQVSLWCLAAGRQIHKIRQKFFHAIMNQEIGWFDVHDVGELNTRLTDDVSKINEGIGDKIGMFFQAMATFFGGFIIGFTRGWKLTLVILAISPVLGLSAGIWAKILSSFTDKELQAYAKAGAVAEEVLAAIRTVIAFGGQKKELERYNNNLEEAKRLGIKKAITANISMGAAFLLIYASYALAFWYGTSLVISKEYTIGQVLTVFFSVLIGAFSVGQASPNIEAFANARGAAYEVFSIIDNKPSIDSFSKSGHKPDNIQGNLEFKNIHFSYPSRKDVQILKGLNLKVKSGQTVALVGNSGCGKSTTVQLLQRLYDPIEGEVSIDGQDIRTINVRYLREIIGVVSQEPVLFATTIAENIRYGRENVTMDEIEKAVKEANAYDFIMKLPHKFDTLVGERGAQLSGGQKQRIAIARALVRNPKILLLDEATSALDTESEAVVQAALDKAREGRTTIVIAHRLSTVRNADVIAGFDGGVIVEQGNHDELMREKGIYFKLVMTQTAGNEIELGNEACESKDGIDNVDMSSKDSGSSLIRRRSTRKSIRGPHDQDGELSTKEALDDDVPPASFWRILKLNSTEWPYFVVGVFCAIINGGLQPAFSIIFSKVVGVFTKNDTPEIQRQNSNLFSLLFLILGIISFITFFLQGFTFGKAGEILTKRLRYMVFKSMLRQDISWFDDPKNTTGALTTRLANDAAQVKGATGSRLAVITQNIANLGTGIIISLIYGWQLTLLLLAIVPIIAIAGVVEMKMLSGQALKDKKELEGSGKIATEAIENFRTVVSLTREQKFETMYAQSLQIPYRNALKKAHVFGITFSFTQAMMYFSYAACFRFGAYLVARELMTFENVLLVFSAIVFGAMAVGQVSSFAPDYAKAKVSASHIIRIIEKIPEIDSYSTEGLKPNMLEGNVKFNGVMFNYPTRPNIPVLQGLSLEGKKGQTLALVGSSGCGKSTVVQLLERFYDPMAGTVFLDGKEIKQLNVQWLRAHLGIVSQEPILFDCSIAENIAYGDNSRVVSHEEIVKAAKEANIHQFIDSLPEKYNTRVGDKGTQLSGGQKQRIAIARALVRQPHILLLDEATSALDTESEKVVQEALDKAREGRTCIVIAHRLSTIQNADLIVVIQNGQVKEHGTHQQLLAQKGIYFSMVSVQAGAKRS

The IC50 is the concentration needed to halve the response being measured. Turning to `C[C@@]1(c2cc(Nc3nccc4cc(C#N)cnc34)ccc2F)CS(=O)(=O)[C@@](CF)(C2CC2)C(N)=N1` [Example 1, 8-({3-[(3R,6S)-6-cyclopropyl-6-(fluoromethyl)-5-imino-3-methyl-1,1-dioxidothiomorpholin-3-yl]-4-fluorophenyl}amino)-1,7-naphthyridine-carbonitrile], in the data set on CSF Aβ40, the “Aβ reduction in vivo in rat (Δ% CSF Aβ40 @ 10 mpk)” value is −58%. Moreover, the efflux ratio at 3 h on rat Mdr1a (P-gp) turned out to be 6.1. The compound further showed an IC50 against BACE-1 of 24 nM.
For orientation: pKi means the Ki on a negative log10 scale, so that one unit is a factor of ten. Broadly, the Ki is a dissociation constant, usually derived from enzyme kinetics or from competition with a known ligand. Consider `COc1cnc2c(Nc3ccc(F)c([C@]4(C)CS(=O)(=O)[C@@](CF)(C5CC5)C(N)=N4)c3)nccc2c1` [Example 7, N-{3-[(3R,6S)-6-cyclopropyl-6-(fluoromethyl)-5-imino-3-methyl-1,1-dioxidothiomorpholin-3-yl]-4-fluorophenyl}-3-methoxy-1,7-naphthyridin-8 amine], for which the pKi was 8.44 in data set [1] and 8.15 in data set [3]. For the same compound, in data set [2], the Ki was 1120 nM. This compound also returned a concentration for half-maximal inhibition (IC50) on BACE-1 of 132 nM. Besides, in the data set on HepG2 cells, the “In Vitro Phospholipidosis Assay: Mean NBD-PE Inclusion Count (Fold over control)” value amounted to 1.9 Fold over control.
